Measurements as given in patent publication US11213666B2, “Method for administering a medicament suitable for treating a migraine or cluster headache” (SORRENTO THERAPEUTICS, INC., priority 2016, dated 2022).
Read-outs that look alike come from different tables or passages of the source.

Key:
[1] = cited from earlier work
[2] = Porcine pharmacokinetic study of sumatriptan delivered by the microneedle fluid delivery apparatus (FIG. 50); format: in vivo, Yorkshire pigs; conditions: 20 mg via fluid delivery apparatus (microneedles), pig, blood serum; compared with nasal, oral and Zecuity administration
Protocol: In reference to FIG. 50, shown is the time versus concentration profile of sumatriptan as administered according to the methods and devices disclosed herein. An ideal profile (identified as “Target PK Profile”) is calculated based on the therapeutic efficiency of the medicament.
Thirty five 80 kg castrated or female Yorkshire pigs were placed under anesthesia and a catheter was inserted into the right or left jugular vein. After the catheter was placed, the pigs were kept under anesthesia and placed on their backs. The ventral region was shaved and covered with a depilatory cream (Nair Sensitive®) for 8 minutes. The cream was removed and the area washed with alcohol. The fluid delivery apparatus was placed against the skin with an adhesive and the microneedles (100 total) were inserted at a post traveling velocity of 6 m/s. A 20 mg dose of sumatriptan from the fluid deliver apparatus was delivered while the pig was under anesthesia. 3 mL blood samples were withdrawn at each time point and spun down to recover the blood serum.

[3] = nasal administration, compared with the actual profile of the fluid delivery apparatus (FIG. 49 vs FIG. 50)
[4] = subcutaneous administration, compared with the other routes of administration

AUC [2]: significantly improved | Css [2]: significantly improved | Tmax [2]: significantly improved
Structure (SMILES): CNS(=O)(=O)Cc1ccc2[nH]cc(CCN(C)C)c2c1.O=C(O)CCC(=O)O [sumatriptan, 1-[3-[2-(dimethylamino)ethyl]-1H-indol-5-yl]-N-methylmethanesulfonamide butanedioic acid]
AUC [1, 3]: significantly lower | Css [1, 3]: significantly lower | Tmax ([1]; oral administration, compared with the actual profile of the fluid delivery apparatus): much slower | Css ([1]; subcutaneous administration, as time progresses): significantly lower | Cmax [1, 4]: higher | Tmax [1, 4]: much faster
